This is an account of results in the CATMoS acute toxicity set (Mansouri et al. 2021).

The nature of the data set: GHS categories as the set defines them, by LD50: 1 up to 5, 2 up to 50, 3 up to 300, 4 up to 2000, 5 above 2000 mg/kg. Conditions: rat; in vivo; po. From the text: […]The data set underlying the modeling effort for this project was initially compiled by NICEATM and U.S. EPA’s CCTE. Briefly, LD50 data were collected from rat acute oral systemic toxicity tests, including limit tests, ranges/confidence intervals, and discrete LD50 values. The full data set included 21,200 LD50 entries for 15,688 substances. […] Data were reviewed to ensure that LD50 values with obvious errors in the extracted data such as unit conversion errors (e.g., comma and decimal separator misplacements) were either fixed or removed. After this review, 16,209 LD50 values remained. Many of the chemicals represented had multiple LD50 entries, requiring that a single representative value per Chemical Abstracts Service Registry Number (CASRN) identifier be defined to facilitate modeling efforts. Based on ATWG feedback and to define the representative LD50 as a protective value while accounting for the distribution across multiple LD50s, the median of the lowest quartile was computed using only discrete LD50 values (omitting limit test data and range and confidence interval data). A detailed summary of the data compilation is available online on the NICEATM webpage dedicated to the collaborative modeling project (NTP 2020).
[…][…] For categorical designations, limit test and range/confidence interval LD50 data were integrated wherever possible. As such, the number of chemicals with end point values/calls varies across the modeling end points (Table 3) based on whether chemicals had representative LD50 values and/or other data. If a chemical had both, the representative value was used to determine categorical calls rather than limit test data. Some data were useable only for certain end points and categories depending on the thresholds. For example, ranges that spanned multiple hazard categories were considered only for the binary (very toxic/nontoxic) end points and omitted from rendering a determination for hazard category assignment.
[…]The final data set comprising 11,992 chemicals was split into training and evaluation sets […], respectively. This process was performed semirandomly by ordering chemicals based on the five end points (categorical and continuous LD50 values) and partitioning every fourth record into the evaluation set accordingly. This approach was taken to ensure an equivalent distribution of the LD50 values and the different hazard categories between the training and the evaluation sets without supervised sampling of the chemicals based on structures (Figure 1A). The sources of the chemical structures were also kept equivalent between the two sets, with chemical structures obtained from DSSTox, being the highest quality, representing over 75% of each set (Figure 1B).

On to `NC(=O)CC1(CC(=O)O)CCCCC1`, for which the GHS category was found to be 5. With `CCOC(=O)C1N=C(c2ccccc2F)c2cc(Cl)ccc2NC1=O` (stereo not drawn) the figure was 5; with `CC(C)OC(=O)Nc1nc(N2CC=CCC2)cc2nc(=O)on12`, 5. Under `Cc1ccnc(N)c1` stands 4. Under `CC(C)S` stands 5; under `C/C(=C\CO)CCC[C@H](C)CCC[C@H](C)CCCC(C)C`, 5; under `N#CC(C(=O)OCC(COC(=O)C(C#N)=C(c1ccccc1)c1ccccc1)(COC(=O)C(C#N)=C(c1ccccc1)c1ccccc1)COC(=O)C(C#N)=C(c1ccccc1)c1ccccc1)=C(c1ccccc1)c1ccccc1`, 5.

For `COc1ccc(C(=O)NCc2ccc(OCCN(C)C)cc2)cc1OC`, the GHS category came to 5. The compound `NC(=O)c1cc[n+](CC2=C(C(=O)O)N3C(=O)[C@@H](NC(=O)[C@H](c4ccccc4)S(=O)(=O)[O-])[C@@H]3SC2)cc1` yielded a GHS category of 5. With `O=[N+]([O-])c1ccc(OP(=S)(Oc2ccc([N+](=O)[O-])cc2)Oc2ccc([N+](=O)[O-])cc2)cc1` the figure was 5; with `CCC1COC(Cn2cncn2)(c2cc3cc(Cl)ccc3o2)O1` (stereo not drawn), 4; with `CCCCOC(=O)c1ccc(-n2nc(OCCCN(C)C)c3ccccc32)cc1`, 4. Under `COP(=S)(OC)N(C)C(=O)Oc1cccc2c1OC(C)(C)C2` stands 3; under `CC1C2Cc3ccc(O)cc3C1(C)CCN2CCCC(=O)c1ccc(F)cc1` (stereo not drawn), 4. With `O=C1CC(Nc2ccc(Cl)cc2Cl)=NN1c1c(Cl)cc(Cl)cc1Cl` the figure was 5. `O=C(OCCOCCO)c1cc(O)ccc1Nc1cccc(C(F)(F)F)c1` yielded a GHS category of 4. Under `CCCCCCCCCCCC#N` stands 5; under `CCCCCCCCCl`, 5; under `Cn1c(=O)oc2cc(C(=O)c3ccccc3)ccc21`, 5. The compound `CC1(C)O[C@@H]2C[C@H]3[C@@H]4C[C@H](F)C5=CC(=O)C=C[C@]5(C)[C@H]4[C@@H](O)C[C@]3(C)[C@]2(C(=O)CO)O1` had a GHS category of 1. With `CCN(CC)C(C)C(=O)c1ccccc1` (stereo not drawn) the figure was 4; with `O=[N+]([O-])c1cc(C(F)(F)F)c(Cl)c([N+](=O)[O-])c1Nc1ncc(C(F)(F)F)cc1Cl`, 5; with `Cn1c(=O)oc2cc(C(=O)c3cccs3)ccc21`, 5. Under `CC1=CC1` stands 5; under `COc1ccc2c(c1)CCN(c1ccccc1)C2c1ccccc1Br` (stereo not drawn), 4. On to `COc1ccc(C2(c3ccc(OC)c(Cl)c3)NC(=O)NC2=O)cc1` (stereo not drawn), for which the GHS category is given as 5. In turn, `CNC(=O)Oc1cccc2c1OC(C)(C(C)(C)C)O2` (stereo not drawn) registered a GHS category of 4. Under `CC(C)c1cc(C(C)C)c([N+](=O)[O-])c(C(C)C)c1[N+](=O)[O-]` stands 5; under `CCC1(C2=CCCCCC2)C(=O)NC(=O)NC1=O`, 5.

The compound `CCCCCCC(=O)OCC(CC)(COC(=O)CCCCCC)COC(=O)CCCCCC` showed a GHS category of 5. Under `COc1cccc(N(C)C(=S)Oc2ccc3c(c2)CCCC3)n1` stands 5; under `CCC=CCCCCCCCCCCCCCCOCC`, 5; under `CC(C)=CCC(C#N)(CCN1CCCCC1)c1cccc2ccccc12` (stereo not drawn), 4. Under `NCC(O)CCl` (stereo not drawn) stands 4; under `CN1C(C(=O)Nc2ccccn2)=C(Nc2ccccn2)c2sc(Cl)cc2S1(=O)=O`, 2.

In the case of `CN(CC1(C)CCCO1)S(=O)(=O)c1ccc(Cl)c(S(N)(=O)=O)c1` (stereo not drawn), the GHS category was found to be 5. Under `CCCCOC(=O)[C@@H](C)Oc1ccc(Oc2ccc(C#N)cc2F)cc1` stands 5; under `CCCCOC(=O)c1ccccc1OC(N)=O`, 5; under `CCCc1nc2ccnn2c(CCC)c1Cc1ccc(-c2ccccc2-c2nn[nH]n2)cc1`, 4.

`O=C(OCCOCCO)c1ccccc1Nc1ccc(O)c(C(F)(F)F)c1` gave a GHS category of 4.

`CCOc1ccccc1C(=N)N` gave a GHS category of 4. Consider `Clc1ccc(Oc2cccc(Cl)c2)cc1`, for which the GHS category was 5. Under `CC(=O)Oc1ccc(C(=C2CCCCC2)c2ccc(OC(C)=O)cc2)cc1` stands 5; under `CCCCCCCCCCCCCCCCCC(=O)NP(=O)(OC)SC` (stereo not drawn), 3.

Compound `C=C1C2CCC(C2)C1(C)C` (stereo not drawn) displayed a GHS category of 5.

In turn, `CC(C)(C)CC(C)(C)c1ccc(O)c(Cc2ccc(Cl)cc2Cl)c1` yielded a GHS category of 5. With `CCCc1c(Cc2ccc(-c3ccccc3-c3nn[nH]n3)cc2)c(=O)nc2nc[nH]n12` the figure was 4; with `Cc1ccc(C(=O)c2ccc(CC(=O)NCC(=O)Nc3cccc(Cl)c3)n2C)cc1`, 4. Consider `CN1CCN(C(=S)SSC(=S)N2CCN(C)CC2)CC1`, for which the GHS category was found to be 5. With `COc1nc(OC)nc(C(=O)c2cccc(F)c2N(C)S(=O)(=O)C(F)(F)F)n1` the figure was 5; with `CCCCCCOc1ccc(-c2nc(-c3ccccc3)nc(-c3ccccc3)n2)c(O)c1`, 5. `NC[C@H]1O[C@H](O[C@H]2[C@H](O)[C@@H](O[C@H]3O[C@H](CO)[C@@H](O)[C@H](N)[C@H]3O)[C@H](N)C[C@@H]2N)[C@H](N)C[C@@H]1O` registered a GHS category of 5. Under `COc1nn(C(=O)NS(=O)(=O)c2ccccc2OC(F)(F)F)c(=O)n1C` stands 5. Under `CCC(C)C(C#N)(CCN(CC=C(C)C)CC=C(C)C)c1cccc2ccccc12` (stereo not drawn) stands 4; under `CC/C=C\CCOC(=O)C/C=C\CC`, 5; under `Cc1cccc2ncc(C(=O)NC3CCCCCC3)c(=O)n12`, 3. Under `CNC(=O)Oc1ccc(C)c2sccc12` stands 3; under `CNC(=O)c1cnc2cccc(C)n2c1=O`, 3; under `CCO[Si](C)(CCCCl)OCC`, 5.

Turning to `CCCc1nc2ccnn2c(Cl)c1Cc1ccc(-c2ccccc2-c2nn[nH]n2)cc1`, the GHS category was determined as 4.

As for `O=C(O)c1cc(=O)c2c(OCC(O)COc3cccc4oc(C(=O)O)cc(=O)c34)cccc2o1`, the GHS category turned out to be 5. Under `CCC=CCC=O` stands 5. Under `CC(=O)CSc1nnnn1C` stands 4; under `CC(=O)OC(C)Cc1ccccc1` (stereo not drawn), 5. Under `CCOC(=O)CC#N` stands 5; under `CCCCCCCCCCCCCCOC(=O)CCCCCCCCCCCCC`, 5; under `O=C(C(Cl)Cl)N(CCO)Cc1ccc(Oc2ccc([N+](=O)[O-])cc2)cc1`, 5. Turning to `O=c1nc2nc[nH]n2c(CO)c1Cc1ccc(-c2ccccc2-c2nn[nH]n2)cc1`, the GHS category was determined as 4. With `CCOCOC1CCCCCCCCCCC1` the figure was 5. On to `CCOC(=O)CCSc1cc(NC(=O)C(=O)OCC)ncn1`, for which the GHS category amounted to 4.

As to `O=C1OC(CBr)CC12CC(CBr)OC2=O` (stereo not drawn), the GHS category is recorded as 5.

For `CCS(=O)c1c(C#N)nn(-c2c(Cl)cc(C(F)(F)F)cc2Cl)c1N` (stereo not drawn), the GHS category came out at 5. Under `FC1(F)COC1(F)F` stands 4; under `CO[C@]1(C)CC[C@@]23C[C@@H]1C(C)(C)[C@@H]2CC[C@H]3C`, 5. Regarding `CCCCCCCCCCCCCCCCOP(=O)(O)O`, the GHS category came out at 5. With `COc1cc(OC)nc(NC(=O)NS(=O)(=O)c2c(-c3nnn(C)n3)cnn2C)n1` the figure was 5.

On to `C=CC(=O)OCCN(C)S(=O)(=O)C(F)(F)C(F)(F)C(F)(F)C(F)(F)F` (racemic), for which the GHS category was determined as 5.

For the compound `Brc1c(Br)c(Br)c(-c2c(Br)c(Br)c(Br)c(Br)c2Br)c(Br)c1Br`, the GHS category came out at 5.

`C=CCCCCCCCC(=O)N(C)C`: the GHS category is on record as 4. With `OC1C(Cl)(Cl)C(=C(Cl)Cl)C2(OC2Cl)C1(Cl)Cl` (stereo not drawn) the figure was 4. With `CCOC[C@@H]1CO[C@@](Cn2ccnc2)(c2cc3cc(Cl)cc(Cl)c3o2)O1`, the GHS category was 4. As for `CCOC(=O)CCNc1ccccn1`, the GHS category worked out at 5.

`OCC1C(CO)C2(Cl)C(Cl)=C(Cl)C1(Cl)C2(Cl)Cl` (stereo not drawn) registered a GHS category of 5. Under `Cn1nnnc1SCCCC(=O)c1cccs1` stands 4.

On to `CCCC(=O)c1ccc(NC)c(O)c1`, for which the GHS category was found to be 5.

In turn, `CC(C)=CC/C(C)=C/COC(=O)c1ccccc1` had a GHS category of 5. Compound `C=C(c1ccccc1)c1ccccc1` gave a GHS category of 5.

On to `CCOC(=O)/C=C(C)/C=C/CC(C)CCCC(C)C` (stereo not drawn), for which the GHS category amounted to 5.
